Assay results from BindingDB's records for PubMed 1347569 (Stanford University, 1992).
Structures can show the parent of a compound that is named as a salt.

Experiments:
[1] = target: 5-hydroxytryptamine receptor 2A (Rattus norvegicus, UniProt P14842)
[2] = target: T1, 5-hydroxytryptamine receptor 2C (Rattus norvegicus, UniProt P08909)
T1 sequence (P08909 whole entry): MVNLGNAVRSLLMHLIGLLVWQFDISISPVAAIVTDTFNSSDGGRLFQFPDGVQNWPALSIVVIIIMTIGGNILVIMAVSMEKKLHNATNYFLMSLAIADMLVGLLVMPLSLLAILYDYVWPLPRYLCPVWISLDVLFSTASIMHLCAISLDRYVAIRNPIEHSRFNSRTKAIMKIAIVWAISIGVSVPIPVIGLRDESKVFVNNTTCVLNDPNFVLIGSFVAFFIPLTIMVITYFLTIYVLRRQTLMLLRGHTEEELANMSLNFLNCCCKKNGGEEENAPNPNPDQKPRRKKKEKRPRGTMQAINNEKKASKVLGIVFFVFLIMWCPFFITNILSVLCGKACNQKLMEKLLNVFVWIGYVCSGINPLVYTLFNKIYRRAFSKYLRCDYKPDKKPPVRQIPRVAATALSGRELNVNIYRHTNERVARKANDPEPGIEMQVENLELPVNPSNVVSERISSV

5-hydroxytryptamine receptor 2A, sequence (P14842 whole entry): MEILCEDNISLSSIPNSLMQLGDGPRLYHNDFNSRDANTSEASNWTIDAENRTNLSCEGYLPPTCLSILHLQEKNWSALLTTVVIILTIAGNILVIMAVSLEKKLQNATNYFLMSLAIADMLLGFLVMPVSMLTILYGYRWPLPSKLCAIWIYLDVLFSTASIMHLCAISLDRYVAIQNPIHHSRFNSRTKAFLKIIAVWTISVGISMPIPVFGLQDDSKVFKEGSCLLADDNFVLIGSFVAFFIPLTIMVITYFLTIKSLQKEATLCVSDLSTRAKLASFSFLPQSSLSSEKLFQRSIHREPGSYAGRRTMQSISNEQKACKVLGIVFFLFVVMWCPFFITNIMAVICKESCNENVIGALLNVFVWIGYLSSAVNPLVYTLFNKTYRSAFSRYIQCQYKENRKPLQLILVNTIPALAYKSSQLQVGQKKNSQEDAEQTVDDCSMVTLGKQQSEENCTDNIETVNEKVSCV

Compound	Ki [1]	Ki [2]
CN1CCN(C2=Nc3cc(F)ccc3Cc3ccccc32)CC1	7.9 nM	18.2 nM
CN1CCCCC1CCN1c2ccccc2Sc2ccc([S+](C)[O-])cc21 (stereo unspecified)	6.3 nM	79 nM
O=c1[nH]c2ccccc2n1CCCN1CCC(n2c(=O)[nH]c3cc(Cl)ccc32)CC1	294 nM	> 10000 nM
CCNC(=O)N1CCN(CCCC(c2ccc(F)cc2)c2ccc(F)cc2)CC1	–	1150 nM
O=c1[nH]c2ccccc2n1C1CCN(CCCC(c2ccc(F)cc2)c2ccc(F)cc2)CC1 [1-(1-(4,4-bis(4-fluorophenyl)butyl)piperidin-4-yl)-1H-benzo[d]imidazol-2(3H)-one]	7.9 nM	> 10000 nM
c1ccc2nc(N3CCNCC3)ccc2c1 [2-Piperazin-1-yl-quinoline (Quipazine)]	613 nM	336 nM
O=C(c1ccc(F)cc1)C1CCN(CCn2c(=O)[nH]c3ccccc3c2=O)CC1 [3-(2-{4-[(4-fluorophenyl)carbonyl]piperidin-1-yl}ethyl)-1,2,3,4-tetrahydroquinazoline-2,4-dione]	–	28.5 nM
CCN(CC)CCNC(=O)c1cc(Cl)c(N)cc1OC [4-amino-5-chloro-N-[2-(diethylamino)ethyl]-2-methoxy-benzamide;hydrochloride]	–	> 10000 nM
OCCN1CCN(CC/C=C2/c3ccccc3Sc3ccc(C(F)(F)F)cc32)CC1 [(cis) 2-{4-[3-(2-Trifluoromethyl-thioxanthen-9-ylidene)-propyl]-piperazin-1-yl}-ethanol(Flupentixol)]	2 nM	102 nM
CC1CCN(CCCC(=O)c2ccc(F)cc2)CC1 [CAS_3575-80-2]	–	1340 nM
CN1CCN(C2=Cc3cc(Cl)ccc3C(=CC#N)c3ccccc32)CC1 [CAS_79781-95-6]	0.79 nM	23 nM
Clc1cncc(N2CCNCC2)n1 [L-630,571]	> 10000 nM	255 nM
CN1CCN(CC/C=C2/c3ccccc3Sc3ccc(S(=O)(=O)N(C)C)cc32)CC1 [MLS000028463]	–	1550 nM
CN1CCN(C2=Nc3cscc3C(=CC#N)c3cscc32)CC1 [NSC_3086153]	39.8 nM	62 nM
CN1CCc2cc(Cl)c(O)cc2[C@@H](c2ccccc2)C1 [SCH 23390,R(+)]	19.9 nM	13.4 nM
O=C1CC2(CCCC2)CC(=O)N1CCCCN1CCN(c2nsc3ccccc23)CC1 [TIOSPERONE]	–	9.7 nM
